According to patent US20070148258A1, “Dialysates and methods and systems related thereto” (priority 2003, published 2007):
Like-named read-outs stand apart in the source and are kept apart here.

What was measured:
[1] = human, in vivo
Method: To determine whether PPi metabolism is altered in hemodialysis patients, plasma levels and dialytic clearance of PPi were measured in stable hemodialysis patients. Predialysis plasma samples were obtained from 15 patients in an outpatient dialysis unit and from 23 inpatients. The inpatients were clinically stable and were admitted for transplant evaluation or for dialysis access problems.

[2] = 4 L PPi in physiologic saline, 400 ml/min, dialysate without calcium 800 ml/min, 2.1 m^2 cellulose acetate membrane
Method: FIG. 2 is an exemplary graph illustrating the results of in vitro dialysis of pyrophosphate. […] The concentration of pyrophosphate was measured at the times indicated. The line represents a single exponential fit.
(§1) Several studies were undertaken to determine the extent of PPi removal with dialysis. […] In 17 patients, some of whom were included in the predialysis data, plasma PPi concentration was measured before and after dialysis (FIG. 3).

[3] = human, in vivo; remark: listed apart in the source
Method: Samples were drawn immediately before and immediately after dialysis from the predialyzer tubing. The lines to the left and right indicate the mean values before and after dialysis respectively.
as §1
Dialysate was collected during 4 treatments in 4 different patients order to measure the total amount of PPi removed.

[4] = tested on: injured aortas
Method: Injured aortas were incubated for 6 days in DMEM containing 3.8 mM PO4^−3 and varying concentrations of pyrophosphate. Results are means of at least 4 aortic rings.

[5] = tested on: aortic cultures; conditions: based on rate of hydrolysis of [32P]pyrophosphate
[6] = tested on: normal aortas; experiment: Calcification of normal aortas cultured in high-PO4 medium with added enzymes; assay type: cell-based, rat; conditions: enzyme added to culture in DMEM with 3.8 mM PO4 (inorganic pyrophosphatase 12-20 units/ml, 9 days)

Mean plasma [PPi] lower in hemodialysis patients than in normal subjects [1]	In vitro dialyzer clearance of PPi [2]	Decrease of plasma PPi concentration after dialysis, range [3]	Estimated pyrophosphate concentration 3 days after adding ([5]; 5 μM added)	Estimated pyrophosphate concentration 3 days after adding ([5]; 10 μM added)	Estimated pyrophosphate concentration 3 days after adding ([5]; 30 μM added)	Molecule	Inhibition of calcification in injured aortas ([4]; 2.5 M pyrophosphate, 6 days in DMEM with 3.8 mM PO4)	Concentrations at which inhibition of vascular calcification occurs in vitro ([4]; concentrations normally present in human plasma)	Concentration that maximally inhibited calcification in injured aortas ([4]; cultured rat aortas)	Effect on calcification of normal aortas [6]
31%	36%	4-59%	18 µM	3.1 µM	7.9 µM	O=P(O)(O)OP(=O)(O)O [pyrophosphate]	no inhibition	3 to 5 µM	approximately 3 μM	–
–	–	–	–	–	–	Alkaline phosphatase	–	–	–	induced calcification
